Results reported in paper PMC8625357, “Metabolism of Selected 2-Arylbenzofurans in a Colon In Vitro Model System” (Foods, 2021).
Values joined by “and” are separate entries in the source; they are usually repeats but may differ in a detail not shown here. Equal values may be shown once.

Experiments:
[1] = test system: Caco-2 cell line; test: Permeability and metabolism assay on Caco-2 cell line in Transwell plates; type: in vitro ADME, human; details: for Apical side (unchanged parent compound) / Basolateral side (unchanged parent compound) / Cells (unchanged parent compound) / Transformed (converted or metabolized): of the initial 20 μM as 100%, after 4 h; for Transformed (converted or metabolized): remainder
Experimental: (§1) The analysis was performed on an LC/MS system consisting of an Ultimate 3000 UPLC chromatograph Thermo Fisher Scientific (Waltham, MA, USA) coupled to an Impact II ultra-high resolution high mass accuracy mass spectrometer (HRAM) Q-TOF (Bruker Daltonics, Bremen, Germany) equipped with an electrospray ionization (ESI) source.
(§2) The separation was carried out on a Phenomenex F5 Kinetex column (1.7 μm 100 Å 100 × 2.1 mm) (Phenomenex, Torrance, CA, USA) by using a mobile phase consisting of 0.1% formic acid (solvent A) and methanol (solvent B). The binary gradient was run at a flow rate of 0.2 mL/min as follows: 0–3 min isocratic at 20% B, 3–6 min from 20% to 50% B, 6–15 min isocratic at 100% B, and 15–20 min isocratic at 20% B. The column oven was adjusted to 35 °C, and the injection volume was 5 μL.
For metabolite screening, the ESI source was set in both positive and negative mode. Semiquantitative analysis was performed in negative mode with the parameters listed in the Appendix A. Each compound was confirmed by MS/MS fragmentation with a collision energy voltage (20, 30, and 50 eV). Data acquisition was performed using HyStar 3.2 SR4, Otof series 4.0 (Bruker Daltonics, Bremen, Germany) and Chromeleon Xpress (Thermo Fisher Scientific, Waltham, MA, USA) software and the data obtained were analyzed by using DataAnalysis 4.3. (Bruker Daltonics, Bremen, Germany). Commercially available standards of mulberrofuran Y (1), moracin C (2), and mulberrofuran G (3), each at 9 concentration levels ranging from 0.5–500 ng/mL, were used for calibration. A list of the 2-arylbenzofurans monitored in the samples is given in the Appendix B.
The Caco-2 cell lines were purchased from the American Type Tissue Collection (Rockville, MD, USA). Caco-2 cells in Transwells at passage 25 were used. More information on cell culture and passaging is described in [17].
Cells were cultured in DMEM-F12 (Dulbecco’s modified Eagles medium—Nutrient Mixture F-12) supplemented with 10% FBS (fetal bovine serum), 1% nonessential amino acids, 1% penicillin, and streptomycin, all obtained from Sigma-Aldrich (Prague, Czech Republic) in humidified air containing 5% CO2. Cells were seeded at a density of 2.6 × 10^5 cells/cm in 24-wells. The inserts were pre-filled with 50 µL of medium before seeding the cells. After seeding, the basolateral side of the chamber was filled with 1 mL of DMEM, and cells were grown in a humidified atmosphere of 5% CO2 at 37 °C. Non-adherent cells were removed by removing the medium after 6 h of incubation and replaced with 0.5 mL of fresh DMEM. The culture medium was replaced seven times a week for 21 to 25 days prior to the transport experiment.
The filter inserts containing a monolayer of the Caco-2 cell line were washed three times with HBBS (Hanks’ Balanced Salt solution) heated to 37 °C and pH 7.4. The integrity of the cell monolayer was confirmed by measuring the transepithelial electrical resistance (TEER), which had to be at least 600 Ω. After adding 25 µM lucifer yellow, the plates were incubated at 37 °C in 5% CO2 atmosphere for 1 h with shaking (150 rpm). Using a Tecan Infinite M200 reader (Excitation/Emission wavelength 480 nm/530 nm), the plates were measured. Only plates with an integrity greater than 95% were used in the following experiment.
Initially, 500 µL of 20 µM test substance solutions were added to the apical side of each insert and 1000 µL of HBSS were added to the basolateral side. At the same time, 50 µL were taken immediately from the apical side at the time point of 0 h. For future analysis, basolateral sampling times of 0.5, 1, 1.5, 2, 3, and 4 h were chosen while placing the plates in the incubator and using an orbital shaker (150 rpm). In this experiment, 500 µL of sample were always taken from the basolateral side and replaced with an equal amount of pure HBSS. After 4 h, the apical side was simultaneously removed, and the inserts were washed three times with HBSS. […]

[2] = parameters: method as in PMID 15636183; details: cited from earlier work
[3] = test system: human fecal microbiota; test: In vitro batch fermentation with human fecal microbiota; type: in vitro ADME; parameters: final concentration after 8 h of fermentation: reference not given here; details: for bacterial metabolites detected: feces from three donors, 8 h
Experimental: Using a batch fermentation model of the human colon, 2-arylbenzofurans were incubated after the addition of human fecal bacteria from three donors. Samples were collected at 0, 2, 4, and 8 h and the effect of microbiota on tested 2-arylbenzofurans was determined by UHPLC/MS HRAM.
Medium was prepared from 225 mL of distilled water, 112.5 mL of macromineral solution, 56.25 μL of micromineral solution, 562.5 μL of 0.1% resazurin solution, and 1.125 g of tryptone. The macromineral solution was prepared from 7.14 g of Na2HPO4, 6.2 g of KH2PO4, 0.6 g of MgSO4, and up to 1 L of distilled water. The micromineral solution was made of 2.64 g of CaCl2, 2 g of MnCl2, CoCl2, 1.6 g of FeCl3, and up to 20 mL of distilled water. CO3 buffer was created by mixing 1 g of NH4HCO3, 8.75 g of NaHCO3, and distilled water up to 250 mL.
Phosphate buffer for fecal slurries was created by dissolving 1.77 g of KH2PO4 in 195 mL of distilled water and 3.62 g of Na2HPO4 in 305 mL of distilled water (both 1/15M). The acidity of the mixed phosphate buffer was adjusted to a neutral pH by hydrochloric acid. The reducing solution was created by mixing 125 mg of cysteine hydrochloride, 125 mg of Na2S, 0.8 mL of 1M NaOH, and distilled water up to 20 mL.
Mulberrofuran Y (1), moracin C (2), and mulberrofuran G (3) were dissolved in DMSO to a final concentration of 10 mg/mL. After boiling the fermentation medium and sodium phosphate buffer, both were cooled to 37 °C. To remove oxygen, the samples were purged with nitrogen gas (approximately 30 min). The pH of the medium was equilibrated to neutral pH using HCl. For each fermentation bottle, 17.18 mL of fermentation medium and 0.8 mL of reducing solution were transferred to create fermentation vials. Fecal slurry was prepared immediately after sampling from each donor by homogenizing the collected feces in a stomacher bag with phosphate buffer to produce a 25% fecal slurry. After filtration through the mesh, 2 mL of the filtered fecal slurry were added to each fermentation bottle. Finally, 20 μL of the tested compound or DMSO as a negative control were added. The bottles were incubated at 37 °C for 8 h with stirring at 100 strokes per minute. Aliquots of fecal suspensions were collected at 0, 2, 4, and 8 h, and stored at −80 °C until further analysis.
First, 400 μL sample of supernatant fluid were defrosted and centrifuged (5 min/15,000 RPM) and the pellet was erased. Supernatant was combined with 20 μL of ^13C6 trans-resveratrol in methanol (2 μg/mL), which was used as an internal standard. Samples were extracted 3 times with 2.5 mL of ethyl acetate and 2 mL of ultra-pure water. After liquid-liquid extraction, ethyl acetate was evaporated with nitrogen gas and redissolved in 1 mL of methanol (VWR Chemicals, Stribrna Skalice, Czech Republic) in combination with formic acid (Fisher Scientific, Merelbeke, Belgium) (1%).
as §1, §2
For metabolite screening, the ESI source was set in both positive and negative mode. Semiquantitative analysis was performed in negative mode with the parameters listed in the Appendix A. Each compound was confirmed by MS/MS fragmentation with a collision energy voltage (20, 30, and 50 eV). […]

[4] = test system: COX; parameters: method as in PMID 3097265; details: cited from earlier work
[5] = test system: THP-1 human monocytic leukemic cell line; parameters: method as in PMID 24901948; details: read-out: cytotoxic activity; cited from earlier work

Compound | Apical side (unchanged parent compound) [1] | Basolateral side (unchanged parent compound) [1] | Cells (unchanged parent compound) [1] | Transformed (converted or metabolized) [1] | bacterial metabolites detected [3] | IC50 [5] | final concentration after 8 h of fermentation ([3]; donor D1) | final concentration after 8 h of fermentation ([3]; donor D2) | further results
CC1=CC2c3c(O)cc(-c4cc5ccc(O)cc5o4)cc3OC3(c4ccc(O)cc4O)Oc4cc(O)ccc4C(C1)C23 (centres unmarked) [Mulberrofuran G (3), mulberrofuran G] | 2.7 ± 0.5% | 0 ± 0% | 14.0 ± 0.6% | 83.3 ± 1.1% | No metabolites were detected | – | – | – | Apical side (unchanged parent compound) ([1]; listed as mulberrofuran G (3)): 2.7 ± 0.5%; Basolateral side (unchanged parent compound) ([1]; listed as mulberrofuran G (3)): nothing; Cells (unchanged parent compound) ([1]; listed as mulberrofuran G (3)): 14% and 14.0 ± 0.6%; Transformed (converted or metabolized) ([1]; listed as mulberrofuran G (3)): 83.3 ± 1.1%; antimicrobial effects [2]: potent antimicrobial effects; concentration of parent compound after fermentation ([3]; after 8 h, initial 10 μg/mL, in 2 donors): 5000 ng/mL; concentration of parent compound, minimum ([3]; at 2 h, initial 10 μg/mL, the one donor in which compound was stable): 9000 ng/mL; concentration of parent compound after fermentation ([3]; at 8 h, initial 10 μg/mL, the one donor in which compound was stable): 10000 ng/mL; COX inhibitor [4]: inhibitor
CC(C)=CCc1c(O)cc(-c2cc3ccc(O)cc3o2)cc1O [Moracin C (2), moracin C] | 0.7 ± 0.2% | 0 ± 0% | 8.2 ± 0.5% | 91.1 ± 0.7% | No metabolites were detected | 3.2 ± 0.13 µM | 66 ± 3% | 87 ± 10% | Apical side (unchanged parent compound) ([1]; listed as moracin C (2)): 0.7 ± 0.2%; Cells (unchanged parent compound) ([1]; listed as moracin C (2)): 8.2% and 8.2 ± 0.5%; Transformed (converted or metabolized) ([1]; listed as moracin C (2)): 91.1 ± 0.7%
COc1c(O)cc2oc(-c3cc(O)cc(O)c3)cc2c1C/C=C(\C)CCC=C(C)C [Mulberrofuran Y (1), mulberrofuran Y] | 8.9 ± 5.9% | 0 ± 0% | 85.3 ± 19.9% | 5.8 ± 25.8% | No metabolites were detected | 4.8 ± 0.19 µM | 25 ± 0% | 69 ± 8% | became detectable on the basolateral side after ([1]; incubation time, basolateral sampling 0.5-4 h): 3 h; Apical side (unchanged parent compound) ([1]; listed as mulberrofuran Y (1)): 8.9 ± 5.9%; Basolateral side (unchanged parent compound) ([1]; listed as mulberrofuran Y (1)): no amount; Cells (unchanged parent compound) ([1]; listed as mulberrofuran Y (1)): 85.3% and 85.3 ± 19.9%; Transformed (converted or metabolized) ([1]; listed as mulberrofuran Y (1)): 5.8 ± 25.8%
